Experiment [1] concerns Recessive dystrophic epidermolysis bullosa (RDEB) mice. As to conditions: four weeks, results published by Nyström et al.; cited from earlier work.
The test system of experiment [2] is tenascin-C. Nature of the experiment: Tenascin-C immunostaining of mouse forepaw cryosections. The note with it: RDEB mice, four weeks treatment, relative to untreated RDEB controls; P<0.001. The format is in vivo. An excerpt: FIG. 3 depicts images of tenascin-C immunostained cryosections of mouse forepaws. The cryosections were obtained from age-matched wild-type mice, untreated recessive dystrophic epidermolysis bullosa (RDEB) mice, and RDEB mice treated with angiotensin (1-7) for four weeks. Each top panel corresponds to cryosections of the walking pads of a mouse, and each bottom panel corresponds to sections of toes. Tenascin-C is present at low abundance in uninjured skin, and it increases in fibrotic skin. […] Tenascin-C staining was observed primarily just below the dermal-epidermal junction in angiotensin (1-7) treated mice, which corresponds to the initial site of injury in RDEB mice. Cells were counterstained with 4′,6-diamidino-2-phenylindole (DAPI), and the scale bar corresponds to 200 μm.
FIG. 4 is a graph depicting the quantification of the fluorescence intensity of cryosection images of mouse forepaws immunostained with an anti-tenascin-C antibody. […]
Immunostaining was performed on cryosections of mouse forepaws of wild-type mice, untreated RDEB mice, and RDEB mice treated with angiotensin (1-7) for four weeks. […] Tenascin-C immunostaining was visualized using fluorescence microscopy (FIG. 3). Immunostaining was quantified with ImageJ software on images obtained with identical microscope settings and exposure time. […]

Experiment [3] concerns α-SMA positive myofibroblasts. Nature of the experiment: α-SMA immunostaining of mouse forepaw cryosections. As to conditions: RDEB mice, four weeks treatment, relative to untreated RDEB mice. The format is in vivo. The source says: (§1) FIG. 5 depicts images of α-SMA (top panel), fibronectin (middle panel), and CD11b (bottom panel) immunostained cryosections of mouse forepaws. The cryosections were obtained from age-matched wild-type mice, untreated recessive dystrophic epidermolysis bullosa (RDEB) mice, and RDEB mice treated with angiotensin (1-7) for four weeks. […] Cells were counterstained with 4′,6-diamidino-2-phenylindole (DAPI).
(§2) Cryosections of mouse forepaws were also immunostained for α-SMA (alpha smooth muscle actin), fibronectin, and CD11b. α-SMA is a myofibroblast cell marker, which correlates with fibrotic disease. Fibronectin correlates with dermal fibrosis. CD11b (integrin αM subunit) is a leukocyte marker, which is expressed by monocytes, granulocytes (e.g., neutrophils), macrophages, and natural killer cells.

Experiment [4] has as its system Recessive dystrophic epidermolysis bullosa (RDEB) mice. Nature of the experiment: Toe length and loss/fusion of digits in RDEB mice treated four weeks. The format is in vivo, mouse. As to the method: FIGS. 1A-1B. Recessive dystrophic epidermolysis bullosa (RDEB) mice were treated with angiotensin (1-7) peptide for four weeks. FIG. 1A consists of images of the right forepaw of a RDEB mouse before and after treatment with angiotensin (1-7). […] FIG. 1B is a graph of the average toe length of RDEB mice treated with angiotensin (1-7) peptide for four weeks (“Tarix”) or a vehicle control (“Vehicle”) as a percentage of average toe length before treatment.
FIG. 2 is a graph of average toe length of recessive dystrophic epidermolysis bullosa (RDEB) mice treated with either angiotensin (1-7) peptide, losartan, or a vehicle control for four weeks as a percentage of average toe length before treatment.
Recessive dystrophic epidermolysis bullosa (RDEB) is caused by a mutation in the gene encoding type VII collagen. RDEB mice display marked fibrosis, which leads to deleterious phenotypes including the fibrosis-driven loss and fusion of digits over time (see, e.g., Nyström, A. et al., EMBO MOLECULAR MEDICINE 7(9):1211-28 (2015)).
RDEB mice were treated with angiotensin (1-7) for four weeks (nine mice) or left untreated (three mice). Three wild type mice served as controls.

The subject of experiment [5] is CD11b-positive inflammatory leukocytes. The experiment is described as follows: CD11b immunostaining of mouse forepaw cryosections, CD11b-positive cells counted with ImageJ. Type of experiment: in vivo. The note with it: RDEB mice, four weeks treatment.
From the text: as §1
FIG. 6 is a graph depicting the quantification of CD11b-positive cells per mm^2 in images of immunostained cryosections of mouse forepaws. The cryosections were obtained from age-matched wild-type mice, untreated recessive dystrophic epidermolysis bullosa (RDEB) mice, and RDEB mice treated with angiotensin (1-7) for four weeks. CD11b stains neutrophils and macrophages. […] Each bar corresponds to a mean value, and error bars correspond to standard error of the mean (SEM).
Cryosections of mouse forepaws were also immunostained for α-SMA (alpha smooth muscle actin), fibronectin, and CD11b. α-SMA is a myofibroblast cell marker, which correlates with fibrotic disease. Fibronectin correlates with dermal fibrosis. […]
The number of CD11b-positive cells per mm^2 was quantified using ImageJ software. […] Identical thresholds were applied to all images, the images were converted to binary images, and all particles >10 pixles^2 were automatically counted.

Experiment [6] deals with pSMAD2/3. Nature of the experiment: Western blot of whole protein lysates of mouse forepaws: pSMAD2/3. The format is in vivo. The note with it: RDEB mouse forepaw lysates, four weeks treatment, relative to untreated RDEB mice. An excerpt: (§3) FIG. 7 depicts tenascin-C, thrombospondin-1, pSMAD2/3, galectin 3, and β-tubulin Western blots of whole protein lysates of mouse forepaws. Samples were obtained from age-matched wild-type mice, untreated recessive dystrophic epidermolysis bullosa (RDEB) mice, and RDEB mice treated with angiotensin (1-7) for four weeks.
(§4) FIG. 8 is a graph depicting the quantification of Western blot bands immunostained with antibodies directed against tenascin-C, thrombospondin-1, pSMAD2/3, and galectin 3. Samples consisted of whole protein lysates of mouse forepaws obtained from age-matched wild-type mice, untreated recessive dystrophic epidermolysis bullosa (RDEB) mice, and RDEB mice treated with angiotensin (1-7) for four weeks. Samples were normalized against β-tubulin. […] Each bar corresponds to a mean value, and error bars correspond to standard error of the mean (SEM).
(§5) Whole protein lysates from mouse forepaws were analyzed by Western blotting with antibodies directed against tenascin-C, thrombospondin-1, pSMAD2/3, galectin 3, and β-tubulin (FIG. 7). Thrombospondin 1 can activate transforming growth factor beta (TGFβ) signaling, which is associated with fibrosis. TGFβ signals through an intracellular SMAD pathway, and thus, phosphorylated-SMAD (e.g., pSMAD2/3) correlates with TGFβ-associated fibrosis. […] Western blotting results were quantified by densitometry and normalized against β-tubulin.
For orientation: A western blot detects proteins with antibodies after separation by electrophoresis.

Experiment [7] deals with galectin 3. Nature of the experiment: Western blot of whole protein lysates of mouse forepaws: galectin 3. Type of experiment: in vivo. As to conditions: RDEB mouse forepaw lysates, four weeks treatment, relative to untreated RDEB mice.
From the text: as §3, §4, §5

Experiment [8] concerns thrombospondin-1. The experiment is described as follows: Western blot of whole protein lysates of mouse forepaws: thrombospondin-1. The format is in vivo. The note with it: RDEB mouse forepaw lysates, four weeks treatment, relative to untreated RDEB mice.
From the text: as §3, §4, §5

The test system of experiment [9] is tenascin-C. The experiment is described as follows: Western blot of whole protein lysates of mouse forepaws: tenascin-C. The format is in vivo. As to conditions: RDEB mouse forepaw lysates, four weeks treatment, relative to untreated RDEB mice.
From the text: as §3, §4, §5

In experiment [10] the test system is fibronectin. Nature of the experiment: Fibronectin immunostaining of mouse forepaw cryosections. Type of experiment: in vivo. As to conditions: RDEB mice, four weeks treatment, relative to untreated RDEB mice.
From the text: as §1, §2

For experiment [11], the system named is Recessive dystrophic epidermolysis bullosa (RDEB) mice. The experiment is described as follows: Blistering of forepaws of RDEB mice. Type of experiment: in vivo, mouse. The note with it: four weeks treatment, wild type controls lacked blistering.

Results on two molecules are retold here after patent publication US10960045B2, “Methods and compositions for the treatment of epidermolysis bullosa” (Constant Therapeutics LLC, priority 2015, dated 2021).

“Also recorded” adds a separate entry of the source.

Take `CCCCc1nc(Cl)c(CO)n1Cc1ccc(-c2ccccc2-c2nn[nH]n2)cc1` [losartan]: in [1], the “average toe length as a percentage of average toe length before treatment (losartan)” value was “similar”.
In the case of “Asp^1-Arg^2-Val^3-Tyr^4-Ile^5-His^6-Pro^7 [angiotensin (1-7)]”, the “tenascin-C immunostaining (fluorescence intensity) in forepaw dermis” value in experiment [2] is recorded as “significant (P<0.001) reduction in tenascin-C staining; also recorded: significantly lowered the amount of tenascin-C staining; also recorded: significant reduction in tenascin-C immunostaining”. For the same molecule, the “α-SMA positive cells (myofibroblasts) in forepaw” value in experiment [3] is “fewer α-SMA positive cells; also recorded: reduced the number of α-SMA positive myofibroblasts”. Besides, in experiment [4] (relative to vehicle-treated RDEB controls (results published by Nyström et al.)), the “average toe length as a percentage of average toe length before treatment” value is “significant reduction in the decrease in toe length; also recorded: protected against RDEB-associated decreases in toe length”. In experiment [4] (right forepaw, four weeks treatment), the “fibrosis-driven loss and fusion of digits” value was “reduced the expression of this deleterious phenotype; also recorded: protected against RDEB-associated decreases in toe length and fusion of digits”. For the same molecule, the “CD11b-positive cells in forepaw dermis” value in experiment [5] (relative to untreated RDEB mice) was “fewer CD11b-positive cells; also recorded: reduced; also recorded: reduction in CD11b-positive cell density”. In addition, in [5] (versus age-matched wild type mice), the “number of CD11b-positive cells per mm^2 compared with wild type mice” value is “about the same number of CD11b-positive cells per mm^2 as wild type mice”. Further, in [6], the “phosphorylated SMAD2/3 (pSMAD2/3) abundance, Western blot normalized against β-tubulin” value is “reduced abundance of phosphorylated SMAD2/3”. For the same molecule, in experiment [7], the “galectin-3 abundance, Western blot normalized against β-tubulin” value is “reduced galectin-3”. For the same molecule, the “thrombospondin-1 abundance, Western blot normalized against β-tubulin” value in experiment [8] is “reduced abundance of the TGFβ activator thrombospondin-1”. In [9], the “tenascin-C abundance, Western blot normalized against β-tubulin” value is on record as “reduced tenascin-C”. Besides, the “dermal fibronectin immunostaining in forepaw” value in [10] was “less fibronectin immunostaining; also recorded: reduced”. In addition, the blistering of forepaws entry in [11] is given as “displayed blistering”.
